Results: paper PMC8638259 (Biochemistry, 2021)
Where “and” joins values, the source holds several entries; their conditions need not be identical. Identical values can stand only once. Entries after “also recorded” stand apart in the source; their conditions may differ. Like-named read-outs stand apart in the source and are kept apart here. Marks after values point to notes of the source that are not given here. Blank lines part the entries; values can stand above or below the molecule they belong to.

How the values were obtained:
human Mat2A [1] = biological target: T1, human Mat2A (Homo sapiens, UniProt P31153); test: LC-MS SAM detection assay (assay 2), Mat2A initial rates; assay type: biochemical; design: key to type of inhibition (product inhibition by phosphate): U indicates uncompetitive inhibition; NC indicates noncompetitive inhibition; conditions: pH 7.5, 22 °C; for Ki: read-out: inhibition constant Kis (product inhibition by phosphate); for Km: Mat2A only, single experiment, three replicates ± SE
T1 construct: His6 (N, cleaved yes); TEV protease cleavage site (N, cleaved yes); made in house; host or cells: E. coli BL21 STAR (DE3)
Text: In all cases, initial velocities were obtained from the linear regions of the reaction progress curves (<200 s, Figures S3C and S5).
The LC–MS assay monitors SAM directly and was developed to confirm the kinetic parameters that were obtained in the phosphate coupled assay and to carry out product inhibition studies by Pi, which was not possible using the phosphate coupled assay. The amount of SAM produced was quantified using a standard curve (Figure S3F). Prior to LC–MS, 1:1 methanol/acetonitrile + 0.1% (v/v) formic acid was added to the samples. LC–MS was performed using an Agilent 1200 LC system fitted with a Cogent Diamond Hydride Type C silica column (2.1 × 150 mm, dead volume 315 μL). Solvent A was LC–MS grade H2O + 0.1% (v/v) formic acid. Solvent B was acetonitrile + 0.1% (v/v) formic acid. The gradient started at 85% B dropping to 5% B over 14 min. Flow rate was 0.4 mL/min. Mass spectrometry was performed using an Agilent Accurate Mass 6230 TOF apparatus in positive-ion mode. The doubly charged SAM ion was detected at an m/z of 200.0759.
Product and dead-end inhibition data showing competitive, noncompetitive, or uncompetitive patterns were fitted to eqs 2–4, respectively. [drawing 2] 2 [drawing 3] 3 [drawing 4] 4 where I is the inhibitor concentration; S is the concentration of the variable substrate; Km is the Michaelis constant for the variable substrate; and Kis and Kii are the slope and intercept inhibition constants, respectively.
Saturation kinetics data were fitted to eq 5. [drawing 5] 5

Mat2A + Mat2B = tested on: Mat2A + Mat2B; design: method as in PMID 28553945; conditions: after addition of Mat2B, cited from earlier work
human Mat2A [2] = biological target: T1, human Mat2A; test: MESG EnzChek coupled phosphate detection assay (assay 1), Mat2A initial rates; assay type: biochemical; design: key to type of inhibition (product inhibition) / inhibition pattern (dead-end inhibition): U indicates uncompetitive inhibition; NC indicates noncompetitive inhibition; conditions: for Km: average of five independent experiments ± SD
Mat2A/Mat2B complex [3] = biological target: T2, Mat2A/Mat2B complex (Homo sapiens, UniProt P31153); test: Kinetic constants of Mat2A/Mat2B complex after preincubation at 37 °C; assay type: biochemical; conditions: 60 nM Mat2A + 30 nM Mat2B preincubated 15 min at 37 °C; assay at pH 7.5, 22 °C; ATP 1.25 mM; read-out: Km(L-Met)
T2 construct: His6 (N, cleaved yes); TEV protease cleavage site (N, cleaved yes); made in house; host or cells: E. coli BL21 STAR (DE3)

Mat2A [4] = tested on: T3, Mat2A; test: Stability assay: Mat2A activity after preincubation at 37 °C; assay type: biochemical, human
T3 construct: His6 (N, cleaved yes); TEV protease cleavage site (N, cleaved yes); made in house; host or cells: E. coli BL21 STAR (DE3)

Mat2A/Mat2B complex [5] = biological target: T2, Mat2A/Mat2B complex; test: Coupled phosphate detection assay (assay 1) with the Mat2A/Mat2B complex; assay type: biochemical; conditions: for Km: Mat2A + Mat2B (250 nM Mat2A, 600 nM Mat2B), pH 7.5, 22 °C
Mat2A [6] = tested on: T3, Mat2A; conditions: cited from earlier work
human Mat2A [7] = biological target: T1, human Mat2A; test: Isothermal titration calorimetry (ITC) binding to Mat2A; conditions: for binding to Mat2A (ITC): in the absence of ATP
Description: Prior to performing ITC, proteins (approximately 1 mL volume) were dialyzed using D-Tube Dialyzers (Maxi 100–3000 μL, MWCO 6–8 kDa) (Novagen) against 1 L of buffer A for 2–4 h at 4 °C with agitation using a magnetic stirring bar. […] Titrations were performed at 20 °C. Protein concentrations were determined by A280 using a UV-2550 spectrophotometer. The protein and ligand concentrations that were used are indicated in the legends of Figures 5 and 6. ITC measurements were performed on a MicroCal PEAQ-ITC calorimeter (Malvern Panalytical). Data were analyzed using the MicroCal PEAQ-ITC analysis software supplied by the manufacturer using nonlinear regression with the One Set of Sites model. For each experiment, the heat produced or consumed associated with ligand dilution was measured and subtracted from the raw data.

Mat2B (Homo sapiens) = Mat2B (Homo sapiens) (UniProt Q9NZL9); conditions: cited from earlier work
[8] = variable substrate ATP, saturating L-Met 0.6 mM
[9] = variable substrate L-Met, saturating ATP 0.5 or 1 mM
[10] = saturating Mat2B, ATP varied, saturating L-Met 600 μM

inhibition constant Kii (product inhibition by phosphate) (human Mat2A [1]; [8]): Kii = 5740 ± 760 ^b μM | type of inhibition (product inhibition by phosphate) (human Mat2A [1]; [8]): NC ^b | Ki (human Mat2A [1]; [8]): 1290 µM | inhibition constant Kii (product inhibition by phosphate) (human Mat2A [1]; [9]): Kii = 4970 ± 770 ^b μM | type of inhibition (product inhibition by phosphate) (human Mat2A [1]; [9]): NC ^b | Ki (human Mat2A [1]; [9]): 1580 µM
Molecule: O=P(O)(O)O [phosphate, inorganic phosphate]

Km (human Mat2A [2]; Mat2A only, pH 7.5, 22 °C, read-out: Km(L-Met)): 5 ± 2 µM | Km (Mat2A/Mat2B complex [3]): 3.9 ± 0.1 µM | Km (Mat2A [4]; Mat2A only (60 nM) preincubated 15 min at 37 °C, assay at pH 7.5, 22 °C, ATP 1.25 mM, read-out: Km(L-Met)): 3.5 ± 1.3 µM | Km (Mat2A/Mat2B complex [5]; read-out: Km(L-Met)): 4 ± 1 µM | Km (human Mat2A [1]; read-out: Km(L-Met)): 8 ± 2 µM
Molecule: CSCC[C@H](N)C(=O)O [L-Met, L-methionine]
Km (Mat2A + Mat2B; read-out: Km for L-Met): 2.5 µM | Km (Mat2A [6]; without Mat2B, read-out: Km for L-Met): 14 µM | binding to Mat2A (ITC) (human Mat2A [7]; ITC, 20 °C): No significant change in heat; also recorded: No binding

type of inhibition (product inhibition) (human Mat2A [2]; variable substrate ATP, nonsaturating L-Met (0.02 mM), pH 7.5, 22 °C): NC ^c | Ki (human Mat2A [2]; variable substrate ATP, nonsaturating L-Met (0.02 mM), pH 7.5, 22 °C, read-out: inhibition constant Kis (product inhibition)): 620 µM | type of inhibition (product inhibition) (human Mat2A [2]; variable substrate ATP, saturating L-Met 0.6 mM, pH 7.5, 22 °C): U ^b | type of inhibition (product inhibition) (human Mat2A [2]; variable substrate L-Met, nonsaturating ATP (0.07 mM), pH 7.5, 22 °C): NC ^c | Ki (human Mat2A [2]; variable substrate L-Met, nonsaturating ATP (0.07 mM), pH 7.5, 22 °C, read-out: inhibition constant Kis (product inhibition)): 250 µM | type of inhibition (product inhibition) (human Mat2A [2]; variable substrate L-Met, saturating ATP 0.5 or 1 mM, pH 7.5, 22 °C): NC ^b | Ki (human Mat2A [2]; variable substrate L-Met, saturating ATP 0.5 or 1 mM, pH 7.5, 22 °C, read-out: inhibition constant Kis (product inhibition)): 190 µM | Kii(SAM) (Mat2A/Mat2B complex [5]; [10]): 130 ± 40 µM | type of inhibition by SAM (Mat2A/Mat2B complex [5]; [10]): uncompetitive | increase in the potency of SAM inhibition in the presence of Mat2B (Mat2A/Mat2B complex [5]; versus Mat2A alone): 1.8 fold
Molecule: C[S+](CC[C@H](N)C(=O)[O-])C[C@H]1O[C@@H](n2cnc3c(N)ncnc32)[C@H](O)[C@@H]1O (stereo partly drawn) [SAM, S-adenosyl-L-methionine]
IC50 (Mat2A + Mat2B; read-out: IC50 of product inhibition by SAM): ~150 µM | IC50 (Mat2A [6]; without Mat2B, read-out: IC50 of product inhibition by SAM): ~300 µM

Molecule: Mat1A (from UniProt Q00266)
Kd (Mat2B (Homo sapiens)): 3 µM

Ki (human Mat2A [2]; Mat2A only, dissociation constant of enzyme-ATP complex from eq 1, pH 7.5, 22 °C, read-out: Ki(ATP)): 349 ± 66 µM | Km (human Mat2A [2]; Mat2A only, pH 7.5, 22 °C, read-out: Km(ATP)): 50 ± 10 µM | Km (Mat2A/Mat2B complex [5]; read-out: Km(ATP)): 50 ± 5 µM | Kd (human Mat2A [7]): 80 ± 30 µM | Km (human Mat2A [1]; read-out: Km(ATP)): 55 ± 10 µM
Molecule: Nc1ncnc2c1ncn2[C@@H]1O[C@H](COP(=O)(O)OP(=O)(O)OP(=O)(O)O)[C@@H](O)[C@H]1O [ATP, adenosine 5′-triphosphate]

Molecule: Mat2A: recombinant full-length human methionine adenosyltransferase Mat2A (UniProt P31153)
time to 50% loss of activity (Mat2A [4]; 60 nM Mat2A preincubated in assay buffer at 37 °C, no substrates, no Mat2B): 2.3 min | kcat (Mat2A [4]; Mat2A only (60 nM) preincubated 15 min at 37 °C, assay at pH 7.5, 22 °C): 0.09 ± 0.005 ^b s^–1 | kcat reported by other groups (Mat2A [6]; different assay methods): 0.27 s^–1 and 0.35 s^–1

Molecule: NC1(C(=O)O)CCCC1 [L-cLeu, L-cycloleucine, reference compound]
extent of inhibition of Mat2A (human Mat2A [2]): fully inhibit | substrate activity for Mat2A (human Mat2A [2]): not a substrate | inhibition pattern (dead-end inhibition) (human Mat2A [2]; variable substrate ATP, nonsaturating L-Met = 0.02 mM, pH 7.5, 22 °C): U | Ki (human Mat2A [2]; variable substrate L-Met, nonsaturating ATP = 0.07 mM, pH 7.5, 22 °C, read-out: inhibition constant Kis (dead-end inhibition)): 160 µM | Ki (human Mat2A [2]; variable substrate L-Met, saturating ATP = 1 mM, pH 7.5, 22 °C, read-out: inhibition constant Kis (dead-end inhibition)): 290 µM | binding to Mat2A (ITC) (human Mat2A [7]; ITC, 20 °C): no significant change in heat | binding to Mat2A (ITC) (human Mat2A [7]; ITC, 20 °C, listed as Cycloleucine): No binding | Kd (human Mat2A [7]; ITC, 20 °C, in the presence of 2 mM ATP): 25 ± 10 µM
